Experimental data: patent US10028992B2, “Methods of treating muscular dystrophy” (BOARD OF REGENTS OF THE NEVADA SYSTEM OF HIGHER EDUCATION …, priority 2012, dated 2018)
Read-outs that look alike come from different tables or passages of the source.

System: α7 integrin promoter
Experiment: muscle cell-based assay: α7βgal+/− myoblasts/myotubes, LacZ reporter, β-galactosidase cleavage of FDG
Parameters: species or system mouse
Conditions: for EC50: Mus musculus, read-out: Fit LogAC50 (converted)
Protocol: An α7 integrin null mouse was produced in which exon 1 of the gene encoding the α7 integrin was replaced by the LacZ reporter. In these mice, all the transcriptional regulatory elements of the α7 integrin promoter were retained, allowing β-galactosidase to report expression of 7 integrin. A primary myoblast cell line (designated α7βgal^+/−) isolated from 10 day old α7^+/− pups were analyzed for the ability of β-galactosidase to report α7 integrin expression. α7βgal^+/− myoblasts were differentiated and subjected to X-gal staining and western analysis (FIGS. 1A and 1B).
The activity of the α7 integrin promoter was measured by β-galactosidase cleavage of the non-fluorescent compound fluorescein di-β-D-galactopyranoside (FDG) to fluorescein. This assay was used to screen compound libraries to identify molecules that up-regulate α7 integrin expression in muscle.
Also evaluated was the effect of various isoforms of laminin and the ligand for α7β1 integrin on integrin expression. Positive hits were subjected to dose-response analysis, western analysis and a myostatin counterscreen (a negative regulator of muscle growth).

[1] = given as log AC50 (negative values)
[2] = curve class number, key not given
[3] = curve fit, activity at zero concentration

Row | SMILES | EC50 [1] | Score (Table 12 compound data) | Fit Curve Class [2] | Fit HillSlope (curve fit) | Fit Zero Activity [%] [3] | Fit Infinite Activity [%] (curve fit, activity at infinite concentration) | Fit LogAC50 [1] | Fit Curve Class | Fit HillSlope | Fit Zero Activity [%] | Score | EC50
1 | CC(=O)Nc1ccc(NC(=O)c2cc(=O)c3cc(C)cc(C)c3o2)cc1 [Compound 159] | 11.2 µM | 42 | 2.1 | 4.095 | −2.9033% | – | – | – | – | – | – | –
2 | COc1ccc(/C=C(\NC(=O)c2ccc(C)cc2)C(=O)Nc2ccc(C(=O)O)cc2)cc1 [Compound 160] | 11.2 µM | 42 | 2.1 | 4.095 | −2.4804% | – | – | – | – | – | – | –
3 | O=S(=O)(c1ccccc1)N1CCCC(c2nc(O)c3nnn(Cc4cccc(Cl)c4)c3n2)C1 (stereo not drawn) [Compound 161] | 3.98 µM | 42 | 2.1 | 1.1 | −42.9418% | – | – | – | – | – | – | –
4 | COc1cccc(NC(=O)c2ccc3c(c2)CCCC3)c1 [Compound 162] | 5.62 µM | 42 | 2.1 | 2.2526 | −31.8121% | – | – | – | – | – | – | –
5 | CN(C)CCNc1ncnc2sc(-c3ccccc3)cc12 [Compound 163] | 10 µM | 42 | 2.2 | 4.045 | −0.8551% | – | – | – | – | – | – | –
6 | CCCN1C2CCCC1CC(NC(=O)c1cccc([N+](=O)[O-])c1)C2 (stereo not drawn) [Compound 164] | – | 42 | 2.1 | 4.5045 | 0.8371% | 91.825% | −5 | – | – | – | – | –
7 | O=C(NCCc1ccc(F)cc1)N[C@@H](Cc1ccccc1)C(=O)O [Compound 165] | 11.2 µM | 42 | 2.1 | 4.5045 | −20.12% | – | – | – | – | – | – | –
8 | Cl.O=C(CN1CCOCC1)NCc1cc([N+](=O)[O-])ccc1O [Compound 166] | 12.6 µM | 42 | 2.1 | 1.3987 | 10.3691% | – | – | – | – | – | – | –
9 | COc1cc(Cl)cc(CN2CCC(CCC(=O)NC3CC3)CC2)c1OC [Compound 167] | 7.08 µM | 42 | 2.1 | 1.7885 | −38.2233% | – | – | – | – | – | – | –
10 | COc1ccccc1C(=O)NCCOc1ccc(C(C)(C)C)cc1 [Compound 168] | 8.91 µM | 42 | 2.2 | 1.9673 | −0.7805% | – | – | – | – | – | – | –
11 | COc1nccc(NCc2ccccc2)c1C#N [Compound 169] | 10 µM | 42 | 2.1 | 4.4495 | −19.7104% | – | – | – | – | – | – | –
12 | Cc1ccc(-c2csnn2)cc1 [Compound 170] | 10 µM | 42 | 2.1 | 4.4495 | 3.4732% | – | – | – | – | – | – | –
13 | Cc1nc2c(cnn2-c2ccccc2)c(=O)n1/N=C/c1ccccc1 [Compound 171] | 10 µM | 42 | 2.2 | 3.132 | 9.9159% | – | – | – | – | – | – | –
14 | CN(C)/C(S)=N/c1cccc(C(F)(F)F)c1 [Compound 172] | 10 µM | 42 | 2.2 | 2.3332 | 8% | – | – | – | – | – | – | –
15 | CC(C)(C)N/C=C(\C#N)S(=O)(=O)c1ccc(Br)cc1 [Compound 173] | 11.2 µM | 42 | 2.2 | 0.9 | 7.5952% | – | – | – | – | – | – | –
16 | O=C(O)CCCNC(=O)CCn1nnc2ccccc2c1=O [Compound 174] | 11.2 µM | 42 | 2.1 | 1.8579 | −20.386% | – | – | – | – | – | – | –

Row | SMILES | EC50 [1] | Score (Table 12 compound data) | Fit Curve Class [2] | Fit HillSlope (curve fit) | Fit Zero Activity [%] [3] | Fit Infinite Activity [%] (curve fit, activity at infinite concentration) | Fit LogAC50 [1] | Fit Curve Class | Fit HillSlope | Fit Zero Activity [%] | Score | EC50
17 | CCNC(=O)COC(=O)c1cc(-c2ccco2)nc2ccccc12 [Compound 175] | 5.62 µM | 42 | 2.1 | 1.3443 | −62.687% | – | – | – | – | – | – | –
18 | COc1cccc(N2C(=O)CC(N3CCc4ccccc4C3)C2=O)c1 (stereo not drawn) [Compound 176] | 10 µM | 42 | 2.1 | 4.9549 | −19.4361% | – | – | – | – | – | – | –
19 | COC(=O)C1=NNC2(C)C(=O)N(c3ccc(C)cc3)C(=O)C12 (stereo not drawn) [Compound 177] | 10 µM | 42 | 2.2 | 4.9549 | 0.9153% | – | – | – | – | – | – | –
20 | CCCOc1nc(SCCC)nc2c1cnn2-c1ccccc1 [Compound 178] | 11.2 µM | 42 | 2.1 | 1.1341 | −22.6542% | – | – | – | – | – | – | –
21 | COc1ccc(O)c(/C=N/NC(=O)c2cc(O)nc3ccccc23)c1 [Compound 179] | 5.62 µM | 42 | 2.1 | 2.2526 | −35.6913% | – | – | – | – | – | – | –
22 | CCOc1ccc(NC(=O)CN2C(=O)NC(CCSC)C2=O)cc1 (stereo not drawn) [Compound 180] | 10 µM | 42 | 2.2 | 3.1925 | −1.6238% | – | – | – | – | – | – | –
23 | Br.COc1ccc(C(=O)CN2CCCCC2)cc1 [Compound 181] | – | – | – | – | – | – | – | 2.1 | 4.9549 | 12.5% | 42 | 12.6 µM
24 | CNP(=O)(Oc1ccccc1)OC12CC3CC(CC(C3)C1)C2 (stereo not drawn) [Compound 182] | – | – | – | – | – | – | – | 2.1 | 2.2481 | −0.8571% | 42 | 10 µM
25 | O=C(CCc1ccccc1)c1nnc(-c2ccccc2)o1 [Compound 183] | 10 µM | 42 | 2.1 | 4.4495 | 1.0471% | – | – | – | – | – | – | –
26 | COc1ccc(CNC(=O)COC(=O)CCc2c[nH]c3ccccc23)cc1 [Compound 184] | 10 µM | 42 | 2.1 | 2.9023 | −0.6011% | – | – | – | – | – | – | –
27 | COc1ccccc1OCC(=O)N/N=C1/C=C(C)CC1 [Compound 185] | 10 µM | 42 | 2.1 | 4.9549 | −23.4705% | – | – | – | – | – | – | –
28 | CC(C(=O)Nc1ccc(C#N)cc1)N(C)CC(=O)Nc1cccc(F)c1 (stereo not drawn) [Compound 186] | 3.98 µM | 42 | 2.1 | 0.9 | −45.5302% | – | – | – | – | – | – | –
29 | COC(=O)C1SCC2C(=O)N(Cc3ccc(F)cc3)CC(=O)N21 (stereo not drawn) [Compound 187] | 8.91 µM | 42 | 2.1 | 1.3437 | −54.3669% | – | – | – | – | – | – | –
30 | COc1ccc(-c2cc(COc3ccccc3)on2)cc1 [Compound 188] | 10 µM | 42 | 2.1 | 4.5045 | 0.195% | – | – | – | – | – | – | –
31 | Sc1nnc(Cn2cnc3ccccc32)n1-c1ccccc1 [Compound 189] | 8.91 µM | 42 | 2.2 | 0.8 | 8.5392% | – | – | – | – | – | – | –
